Test results taken from patent publication US6479435B1, “Diaryl ethers and processes for their preparation and herbicidal and desiccant compositions containing them” (ISK Americas Incorporated, priority 1997, dated 2002).

Experiments:
Assay type in all cases: in vivo
[1] = tested on: field corn (Zea mays L., var. Dekalb 535, CORN); assay: Pre-emerge greenhouse test, crop damage rating; details: 14 days after application, rating scale 0-100
Summary of the method: (§1)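 Visual 0–100 injury rating (100 = all plants dead) taken 14 days after treatment. Rates of 125–1000 g ai/ha in acetone, 187 l/ha, were sprayed onto soil one day post-sowing; pots were surface-watered to incorporate, then bottom-watered.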

[2] = tested on: upland rice (Oryza sp., var.Tebonnet, RICE); assay: Pre-emerge greenhouse test, crop damage rating; details: 14 days after application, rating scale 0-100
Summary of the method: as §1

[3] = tested on: soybean (Glycine max L., var. Pella 86, SOY); assay: Post-emerge greenhouse test, crop damage rating; details: 14 days after application
Summary of the method: (§2)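 Scores use a 0 (no damage) to 100 (complete kill) scale, taken 14 days after a foliar spray. Acetone solutions with 0.25% v/v non-ionic surfactant were applied by track sprayer at 187 l/ha and 63-1000 g ai/ha to bottom-watered 2-3 leaf plants.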

[4] = tested on: soybean (Glycine max L., var. Pella 86, SOY); assay: Pre-emerge greenhouse test, crop damage rating; details: 14 days after application, rating scale 0-100
Summary of the method: as §1

[5] = tested on: ivyleaf morningglory (Ipomoea hederacea, IPOHE); assay: Post-emerge greenhouse herbicide test, phytotoxicity rating; details: 14 days after application
Summary of the method: as §2

[6] = tested on: lambsquarters (Chenopodium album, CHEAL); assay: as above; details: 14 days after application
Summary of the method: as §2

[7] = tested on: green foxtail (Setaria viridis, SETVI); assay: as above; details: 14 days after application
Summary of the method: as §2

[8] = tested on: barnyardgrass (Echinochloa crusgalli, ECHCG); assay: as above; details: 14 days after application
Summary of the method: as §2

[9] = tested on: large crabgrass (Digitaria sanguinalis, DIGSA); assay: as above; details: 14 days after application
Summary of the method: as §2

[10] = tested on: sicklepod (Cassia obtusifolia, CASOB); assay: as above; details: 14 days after application
Summary of the method: as §2

[11] = tested on: Johnsongrass (Sorghum halepense, SORHA); assay: as above; details: 14 days after application
Summary of the method: as §2

[12] = tested on: velvetleaf (Abutilon theophrasti, ABUTH); assay: as above; details: 14 days after application
Summary of the method: as §2

[13] = tested on: redroot pigweed (Amaranthus retroflexus, AMARE); assay: as above; details: 14 days after application
Summary of the method: as §2

[14] = tested on: field corn (Zea mays L., var. Dekalb 535, CORN); assay: Post-emerge greenhouse test, crop damage rating; details: 14 days after application
Summary of the method: as §2

[15] = tested on: upland rice (Oryza sp., var.Tebonnet, RICE); assay: Post-emerge greenhouse test, crop damage rating; details: 14 days after application
Summary of the method: as §2

[16] = tested on: common ragweed (Ambrosia artemisiifolia L., AMBEL); assay: Post-emerge greenhouse herbicide test, phytotoxicity rating; details: 14 days after application
Summary of the method: as §2

[17] = tested on: common ragweed (Ambrosia artemisiifolia L., AMBEL); assay: Pre-emerge greenhouse herbicide test, phytotoxicity rating; details: 14 days after application, rating scale 0-100
Summary of the method: as §1

[18] = tested on: ivyleaf morningglory (Ipomoea hederacea, IPOHE); assay: as above; details: 14 days after application, rating scale 0-100
Summary of the method: as §1

[19] = tested on: lambsquarters (Chenopodium album, CHEAL); assay: as above; details: 14 days after application, rating scale 0-100
Summary of the method: as §1

[20] = tested on: green foxtail (Setaria viridis, SETVI); assay: as above; details: 14 days after application, rating scale 0-100
Summary of the method: as §1

[21] = tested on: barnyardgrass (Echinochloa crusgalli, ECHCG); assay: as above; details: 14 days after application, rating scale 0-100
Summary of the method: as §1

[22] = tested on: large crabgrass (Digitaria sanguinalis, DIGSA); assay: as above; details: 14 days after application, rating scale 0-100
Summary of the method: as §1

[23] = tested on: sicklepod (Cassia obtusifolia, CASOB); assay: as above; details: 14 days after application, rating scale 0-100
Summary of the method: as §1

[24] = tested on: Johnsongrass (Sorghum halepense, SORHA); assay: as above; details: 14 days after application, rating scale 0-100
Summary of the method: as §1

[25] = tested on: velvetleaf (Abutilon theophrasti, ABUTH); assay: as above; details: 14 days after application, rating scale 0-100
Summary of the method: as §1

[26] = tested on: redroot pigweed (Amaranthus retroflexus, AMARE); assay: as above; details: 14 days after application, rating scale 0-100
Summary of the method: as §1

Structure (SMILES): O=c1n(-c2cc(Oc3ccc([N+](=O)[O-])cc3C(F)(F)F)c(Cl)cc2F)c(=S)n2n1CCCC2 [Compound 8-14]
- crop damage rating CORN ([1]; 125 g ai/ha): 0
- crop damage rating CORN ([1]; 500 g ai/ha): 0
- crop damage rating RICE ([2]; 125 g ai/ha): 0
- crop damage rating RICE ([2]; 500 g ai/ha): 0
- SOY crop damage rating (0-100) ([3]; 63 g al/ha): 30
- SOY crop damage rating (0-100) ([3]; 500 g al/ha): 30
- crop damage rating SOY ([4]; 125 g ai/ha): 0
- crop damage rating SOY ([4]; 500 g ai/ha): 0
- IPOHE phytotoxicity rating (0-100) ([5]; 63 g al/ha): 80
- IPOHE phytotoxicity rating (0-100) ([5]; 500 g al/ha): 85
- CHEAL phytotoxicity rating (0-100) ([6]; 63 g al/ha): 80
- CHEAL phytotoxicity rating (0-100) ([6]; 500 g al/ha): 90
- SETVI phytotoxicity rating (0-100) ([7]; 63 g al/ha): 30
- SETVI phytotoxicity rating (0-100) ([7]; 500 g al/ha): 20
- ECHCG phytotoxicity rating (0-100) ([8]; 63 g al/ha): 0
- ECHCG phytotoxicity rating (0-100) ([8]; 500 g al/ha): 0
- DIGSA phytotoxicity rating (0-100) ([9]; 63 g al/ha): 0
- DIGSA phytotoxicity rating (0-100) ([9]; 500 g al/ha): 0
- CASOB phytotoxicity rating (0-100) ([10]; 63 g al/ha): 40
- CASOB phytotoxicity rating (0-100) ([10]; 500 g al/ha): 30
- SORHA phytotoxicity rating (0-100) ([11]; 63 g al/ha): 0
- SORHA phytotoxicity rating (0-100) ([11]; 500 g al/ha): 0
- ABUTH phytotoxicity rating (0-100) ([12]; 63 g al/ha): 95
- ABUTH phytotoxicity rating (0-100) ([12]; 500 g al/ha): 95
- AMARE phytotoxicity rating (0-100) ([13]; 63 g al/ha): 70
- AMARE phytotoxicity rating (0-100) ([13]; 500 g al/ha): 90
- CORN crop damage rating (0-100) ([14]; 63 g al/ha): 5
- CORN crop damage rating (0-100) ([14]; 500 g al/ha): 5
- RICE crop damage rating (0-100) ([15]; 63 g al/ha): 0
- RICE crop damage rating (0-100) ([15]; 500 g al/ha): 0
- AMBEL phytotoxicity rating (0-100) ([16]; 63 g al/ha): 40
- AMBEL phytotoxicity rating (0-100) ([16]; 500 g al/ha): 60
- phytotoxicity rating AMBEL ([17]; 125 g ai/ha): 0
- phytotoxicity rating AMBEL ([17]; 500 g ai/ha): 30
- phytotoxicity rating IPOHE ([18]; 125 g ai/ha): 0
- phytotoxicity rating IPOHE ([18]; 500 g ai/ha): 0
- phytotoxicity rating CHEAL ([19]; 125 g ai/ha): 80
- phytotoxicity rating CHEAL ([19]; 500 g ai/ha): 100
- phytotoxicity rating SETVI ([20]; 125 g ai/ha): 0
- phytotoxicity rating SETVI ([20]; 500 g ai/ha): 50
- phytotoxicity rating ECHCG ([21]; 125 g ai/ha): 0
- phytotoxicity rating ECHCG ([21]; 500 g ai/ha): 0
- phytotoxicity rating DIGSA ([22]; 125 g ai/ha): 0
- phytotoxicity rating DIGSA ([22]; 500 g ai/ha): 20
- phytotoxicity rating CASOB ([23]; 125 g ai/ha): 0
- phytotoxicity rating CASOB ([23]; 500 g ai/ha): 0
- phytotoxicity rating SORHA ([24]; 125 g ai/ha): 0
- phytotoxicity rating SORHA ([24]; 500 g ai/ha): 0
- phytotoxicity rating ABUTH ([25]; 125 g ai/ha): 30
- phytotoxicity rating ABUTH ([25]; 500 g ai/ha): 60
- phytotoxicity rating AMARE ([26]; 125 g ai/ha): 70
- phytotoxicity rating AMARE ([26]; 500 g ai/ha): 95

Structure (SMILES): Nc1ccc(Oc2cc(-n3c(=O)n4n(c3=S)CCCC4)c(F)cc2Cl)c(C(F)(F)F)c1 [Compound 8-15]
- crop damage rating CORN ([1]; 125 g ai/ha): 0
- crop damage rating CORN ([1]; 500 g ai/ha): 0
- crop damage rating RICE ([2]; 125 g ai/ha): 0
- crop damage rating RICE ([2]; 500 g ai/ha): 0
- SOY crop damage rating (0-100) ([3]; 63 g al/ha): 20
- SOY crop damage rating (0-100) ([3]; 500 g al/ha): 50
- crop damage rating SOY ([4]; 125 g ai/ha): 0
- crop damage rating SOY ([4]; 500 g ai/ha): 0
- IPOHE phytotoxicity rating (0-100) ([5]; 63 g al/ha): 40
- IPOHE phytotoxicity rating (0-100) ([5]; 500 g al/ha): 80
- CHEAL phytotoxicity rating (0-100) ([6]; 63 g al/ha): 70
- CHEAL phytotoxicity rating (0-100) ([6]; 500 g al/ha): 90
- SETVI phytotoxicity rating (0-100) ([7]; 63 g al/ha): 0
- SETVI phytotoxicity rating (0-100) ([7]; 500 g al/ha): 0
- ECHCG phytotoxicity rating (0-100) ([8]; 63 g al/ha): 0
- ECHCG phytotoxicity rating (0-100) ([8]; 500 g al/ha): 0
- DIGSA phytotoxicity rating (0-100) ([9]; 63 g al/ha): 0
- DIGSA phytotoxicity rating (0-100) ([9]; 500 g al/ha): 0
- CASOB phytotoxicity rating (0-100) ([10]; 63 g al/ha): 0
- CASOB phytotoxicity rating (0-100) ([10]; 500 g al/ha): 50
- SORHA phytotoxicity rating (0-100) ([11]; 63 g al/ha): 0
- SORHA phytotoxicity rating (0-100) ([11]; 500 g al/ha): 0
- ABUTH phytotoxicity rating (0-100) ([12]; 63 g al/ha): 50
- ABUTH phytotoxicity rating (0-100) ([12]; 500 g al/ha): 80
- AMARE phytotoxicity rating (0-100) ([13]; 63 g al/ha): 40
- AMARE phytotoxicity rating (0-100) ([13]; 500 g al/ha): 70
- CORN crop damage rating (0-100) ([14]; 63 g al/ha): 0
- CORN crop damage rating (0-100) ([14]; 500 g al/ha): 0
- RICE crop damage rating (0-100) ([15]; 63 g al/ha): 0
- RICE crop damage rating (0-100) ([15]; 500 g al/ha): 0
- AMBEL phytotoxicity rating (0-100) ([16]; 63 g al/ha): 30
- AMBEL phytotoxicity rating (0-100) ([16]; 500 g al/ha): 70
- phytotoxicity rating AMBEL ([17]; 125 g ai/ha): 0
- phytotoxicity rating AMBEL ([17]; 500 g ai/ha): 0
- phytotoxicity rating IPOHE ([18]; 125 g ai/ha): 0
- phytotoxicity rating IPOHE ([18]; 500 g ai/ha): 0
- phytotoxicity rating CHEAL ([19]; 125 g ai/ha): 0
- phytotoxicity rating CHEAL ([19]; 500 g ai/ha): 100
- phytotoxicity rating SETVI ([20]; 125 g ai/ha): 0
- phytotoxicity rating SETVI ([20]; 500 g ai/ha): 0
- phytotoxicity rating ECHCG ([21]; 125 g ai/ha): 0
- phytotoxicity rating ECHCG ([21]; 500 g ai/ha): 0
- phytotoxicity rating DIGSA ([22]; 125 g ai/ha): 0
- phytotoxicity rating DIGSA ([22]; 500 g ai/ha): 0
- phytotoxicity rating CASOB ([23]; 125 g ai/ha): 0
- phytotoxicity rating CASOB ([23]; 500 g ai/ha): 0
- phytotoxicity rating SORHA ([24]; 125 g ai/ha): 0
- phytotoxicity rating SORHA ([24]; 500 g ai/ha): 0
- phytotoxicity rating ABUTH ([25]; 125 g ai/ha): 0
- phytotoxicity rating ABUTH ([25]; 500 g ai/ha): 50
- phytotoxicity rating AMARE ([26]; 125 g ai/ha): 0
- phytotoxicity rating AMARE ([26]; 500 g ai/ha): 40
